Consider 21 compounds from PMC2999882 (Molecular pharmacology, 2008).

The target of assay [1] is α3β4 nAChR (Homo sapiens, UniProt P30926+P32297).
Assay [2] addresses T1, α4β2 nAChR (Homo sapiens, UniProt P17787+P43681). Format: cell-based.
The target of assay [3] is α7 nAChR (Homo sapiens, UniProt P36544).
Assay [4] has as its target T2, 5HT3 receptors (Homo sapiens, UniProt P46098).
T2 sequence (P46098 24-478): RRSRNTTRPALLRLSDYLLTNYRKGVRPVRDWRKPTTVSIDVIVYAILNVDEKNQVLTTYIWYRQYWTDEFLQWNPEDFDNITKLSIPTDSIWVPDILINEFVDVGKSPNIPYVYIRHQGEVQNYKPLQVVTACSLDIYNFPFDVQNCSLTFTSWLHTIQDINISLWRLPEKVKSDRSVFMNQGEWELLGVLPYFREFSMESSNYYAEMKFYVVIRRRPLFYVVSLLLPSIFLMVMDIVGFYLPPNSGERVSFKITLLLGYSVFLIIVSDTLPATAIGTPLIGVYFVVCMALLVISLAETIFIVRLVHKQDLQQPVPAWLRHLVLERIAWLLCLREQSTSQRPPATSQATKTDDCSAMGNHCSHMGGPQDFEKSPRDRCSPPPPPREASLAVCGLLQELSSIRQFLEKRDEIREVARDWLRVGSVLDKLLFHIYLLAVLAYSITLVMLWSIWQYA
Format: cell-based.

In assay [5] the target is T1, α4β2 nAChR. Put plainly: cell-based. Format: cell-based.
The target of assay [6] is T2, 5HT3 receptors. Format: cell-based. The source holds these as a separate data set.
Assay [7] addresses T3, muscle type (α1β1εδ) nAChR (Homo sapiens, UniProt P02708+Q04844+Q07001). Format: cell-based.
Assay [8] addresses T3, muscle type (α1β1εδ) nAChR. Format: cell-based. This is another data set of the same source.
The target in assay [9] is T2, 5HT3 receptors. To be noted: cited from earlier work.

Read-outs that look alike come from different tables or passages of the source.

T1 sequence (P43681 29-627 limits assumed): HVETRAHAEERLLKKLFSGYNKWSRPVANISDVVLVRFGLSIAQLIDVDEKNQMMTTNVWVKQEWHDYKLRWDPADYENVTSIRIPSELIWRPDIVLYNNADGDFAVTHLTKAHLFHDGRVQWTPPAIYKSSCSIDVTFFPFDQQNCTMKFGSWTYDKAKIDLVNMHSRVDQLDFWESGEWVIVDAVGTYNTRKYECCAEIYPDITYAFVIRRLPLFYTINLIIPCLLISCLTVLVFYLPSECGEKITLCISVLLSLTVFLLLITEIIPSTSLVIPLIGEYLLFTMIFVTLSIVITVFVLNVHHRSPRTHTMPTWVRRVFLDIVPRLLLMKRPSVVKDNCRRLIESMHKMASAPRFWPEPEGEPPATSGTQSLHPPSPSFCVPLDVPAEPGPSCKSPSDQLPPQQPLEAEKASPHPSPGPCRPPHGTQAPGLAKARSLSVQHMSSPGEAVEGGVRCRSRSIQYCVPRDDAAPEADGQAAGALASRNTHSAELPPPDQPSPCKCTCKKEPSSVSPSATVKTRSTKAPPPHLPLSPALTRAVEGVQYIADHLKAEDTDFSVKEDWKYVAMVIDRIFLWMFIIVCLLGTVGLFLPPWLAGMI
T1 sequence (P17787 26-502): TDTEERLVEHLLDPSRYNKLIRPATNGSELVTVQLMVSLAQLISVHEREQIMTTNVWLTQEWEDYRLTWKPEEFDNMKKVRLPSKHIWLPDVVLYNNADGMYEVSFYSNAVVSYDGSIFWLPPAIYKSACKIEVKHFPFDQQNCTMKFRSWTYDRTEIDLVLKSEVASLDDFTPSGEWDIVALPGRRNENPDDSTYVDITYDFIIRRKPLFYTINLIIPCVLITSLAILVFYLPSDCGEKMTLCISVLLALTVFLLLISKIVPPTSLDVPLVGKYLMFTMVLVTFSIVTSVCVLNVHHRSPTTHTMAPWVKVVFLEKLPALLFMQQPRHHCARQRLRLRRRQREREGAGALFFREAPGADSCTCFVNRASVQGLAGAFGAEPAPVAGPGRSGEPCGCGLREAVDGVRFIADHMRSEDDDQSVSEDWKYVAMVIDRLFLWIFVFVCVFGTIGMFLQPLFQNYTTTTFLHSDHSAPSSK
T3 sequence (P02708 21-457): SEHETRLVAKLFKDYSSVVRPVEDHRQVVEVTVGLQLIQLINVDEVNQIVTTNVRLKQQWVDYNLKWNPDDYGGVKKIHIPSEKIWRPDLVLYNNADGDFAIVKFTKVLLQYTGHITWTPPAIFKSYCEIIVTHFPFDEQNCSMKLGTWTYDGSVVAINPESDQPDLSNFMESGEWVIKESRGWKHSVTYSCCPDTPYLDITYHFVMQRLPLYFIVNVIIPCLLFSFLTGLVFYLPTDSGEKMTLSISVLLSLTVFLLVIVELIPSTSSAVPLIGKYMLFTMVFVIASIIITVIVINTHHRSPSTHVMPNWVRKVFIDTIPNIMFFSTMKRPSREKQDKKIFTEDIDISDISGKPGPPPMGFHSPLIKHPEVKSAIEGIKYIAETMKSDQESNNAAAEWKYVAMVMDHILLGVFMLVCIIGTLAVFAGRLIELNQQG
T3 sequence (P11230 24-501 partner): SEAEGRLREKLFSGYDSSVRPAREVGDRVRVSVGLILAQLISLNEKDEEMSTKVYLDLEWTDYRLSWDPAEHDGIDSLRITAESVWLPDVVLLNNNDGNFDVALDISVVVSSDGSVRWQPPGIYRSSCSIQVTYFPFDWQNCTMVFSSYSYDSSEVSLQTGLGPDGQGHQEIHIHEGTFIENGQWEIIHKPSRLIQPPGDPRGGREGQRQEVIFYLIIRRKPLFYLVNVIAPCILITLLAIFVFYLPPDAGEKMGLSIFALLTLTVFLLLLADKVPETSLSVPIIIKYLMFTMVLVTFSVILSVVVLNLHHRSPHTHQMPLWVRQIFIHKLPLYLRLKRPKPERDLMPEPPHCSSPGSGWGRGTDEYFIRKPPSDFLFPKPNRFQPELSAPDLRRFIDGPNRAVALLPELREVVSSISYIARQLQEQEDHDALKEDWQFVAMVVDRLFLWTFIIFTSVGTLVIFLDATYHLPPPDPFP
T3 sequence (Q04844 21-493): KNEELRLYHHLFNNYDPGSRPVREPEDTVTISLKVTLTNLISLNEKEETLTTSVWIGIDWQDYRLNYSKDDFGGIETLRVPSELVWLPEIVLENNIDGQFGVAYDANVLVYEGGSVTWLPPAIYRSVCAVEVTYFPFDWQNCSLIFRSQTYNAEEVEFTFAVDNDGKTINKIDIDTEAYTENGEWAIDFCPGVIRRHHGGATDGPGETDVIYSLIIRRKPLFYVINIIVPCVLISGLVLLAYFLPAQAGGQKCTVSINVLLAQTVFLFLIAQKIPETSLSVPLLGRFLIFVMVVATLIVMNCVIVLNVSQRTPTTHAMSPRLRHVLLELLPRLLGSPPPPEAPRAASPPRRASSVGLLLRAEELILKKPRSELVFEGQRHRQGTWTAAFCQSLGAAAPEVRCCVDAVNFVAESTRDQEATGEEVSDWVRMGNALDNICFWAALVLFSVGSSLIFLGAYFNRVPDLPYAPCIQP
T3 sequence (Q07001 22-517): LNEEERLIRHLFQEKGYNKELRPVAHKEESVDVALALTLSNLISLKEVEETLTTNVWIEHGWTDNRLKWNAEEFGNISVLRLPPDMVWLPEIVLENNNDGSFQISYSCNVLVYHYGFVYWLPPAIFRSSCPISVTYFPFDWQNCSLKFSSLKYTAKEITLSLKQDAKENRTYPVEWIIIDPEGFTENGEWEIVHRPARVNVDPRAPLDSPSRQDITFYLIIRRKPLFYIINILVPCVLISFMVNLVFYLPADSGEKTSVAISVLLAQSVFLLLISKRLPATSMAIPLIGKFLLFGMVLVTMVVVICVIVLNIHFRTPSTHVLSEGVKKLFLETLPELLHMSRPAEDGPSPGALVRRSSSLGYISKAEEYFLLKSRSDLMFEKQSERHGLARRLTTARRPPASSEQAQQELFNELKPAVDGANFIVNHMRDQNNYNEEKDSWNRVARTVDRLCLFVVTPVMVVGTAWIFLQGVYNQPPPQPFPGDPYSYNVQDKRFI
α7 nAChR, sequence (P36544 23-502): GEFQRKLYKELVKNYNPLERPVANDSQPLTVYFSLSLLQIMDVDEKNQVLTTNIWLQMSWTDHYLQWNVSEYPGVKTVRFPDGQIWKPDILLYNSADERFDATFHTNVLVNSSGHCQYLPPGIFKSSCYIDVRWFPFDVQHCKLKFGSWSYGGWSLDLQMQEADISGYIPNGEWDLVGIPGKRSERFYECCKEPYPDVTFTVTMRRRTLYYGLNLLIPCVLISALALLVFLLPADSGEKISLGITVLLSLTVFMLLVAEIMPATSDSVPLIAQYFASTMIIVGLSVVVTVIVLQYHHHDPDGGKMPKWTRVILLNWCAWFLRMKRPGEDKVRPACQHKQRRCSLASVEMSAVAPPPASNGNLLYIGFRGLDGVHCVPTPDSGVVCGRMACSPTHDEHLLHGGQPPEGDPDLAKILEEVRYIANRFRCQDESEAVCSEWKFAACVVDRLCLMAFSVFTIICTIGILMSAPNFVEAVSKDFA
α3β4 nAChR, sequence (P32297 32-505): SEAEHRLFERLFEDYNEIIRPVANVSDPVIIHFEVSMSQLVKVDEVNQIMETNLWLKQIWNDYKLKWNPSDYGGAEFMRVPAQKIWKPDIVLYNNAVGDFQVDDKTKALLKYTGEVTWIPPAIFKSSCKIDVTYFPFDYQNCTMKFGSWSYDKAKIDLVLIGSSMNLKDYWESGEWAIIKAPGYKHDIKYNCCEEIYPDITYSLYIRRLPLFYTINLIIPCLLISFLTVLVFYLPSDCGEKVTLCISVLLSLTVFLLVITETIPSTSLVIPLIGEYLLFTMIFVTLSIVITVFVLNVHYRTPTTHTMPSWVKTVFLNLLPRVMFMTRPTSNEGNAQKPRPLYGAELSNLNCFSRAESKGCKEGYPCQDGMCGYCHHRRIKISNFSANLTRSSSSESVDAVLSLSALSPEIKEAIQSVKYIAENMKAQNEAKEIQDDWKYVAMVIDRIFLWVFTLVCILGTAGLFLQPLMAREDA
α3β4 nAChR, sequence (P30926 22-498): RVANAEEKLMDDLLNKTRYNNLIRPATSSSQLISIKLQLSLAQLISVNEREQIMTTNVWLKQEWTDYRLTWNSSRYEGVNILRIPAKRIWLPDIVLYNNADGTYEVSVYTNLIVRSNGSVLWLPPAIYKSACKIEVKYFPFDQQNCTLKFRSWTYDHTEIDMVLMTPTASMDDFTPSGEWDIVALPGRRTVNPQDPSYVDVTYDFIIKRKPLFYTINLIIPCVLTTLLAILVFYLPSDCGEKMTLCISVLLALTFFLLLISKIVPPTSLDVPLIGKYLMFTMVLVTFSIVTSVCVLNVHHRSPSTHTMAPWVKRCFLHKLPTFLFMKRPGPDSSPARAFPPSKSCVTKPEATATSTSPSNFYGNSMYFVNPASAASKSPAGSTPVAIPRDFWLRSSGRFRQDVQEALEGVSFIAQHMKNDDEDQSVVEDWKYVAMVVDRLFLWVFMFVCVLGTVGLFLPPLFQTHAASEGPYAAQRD

For `COc1ccc(/C=C2/CN3CCC2CC3)cc1.Cl` [MeOBQNE, (E)-3-(4-methoxybenzylidene)-1-azoniabicyclo[2.2.2]-octane chloride], in [1], the “α3β4 Imax” value is less than 0.01. For the same compound, in [2], the “α4β2 Inhibition” value was 81 ± 2%. Also, in assay [3], the “α7 Imax” value is reported as 0.41 ± 0.03. Moreover, the “5HT3 Activity” value in assay [4] is “N”. Besides, in assay [5], the “α4β2 Activity” value is “N”. Besides, the “5HT3 Inhibition” value in [6] came to 94 ± 5%. Further, the “α1β1εδ Inhibition” value in assay [7] is listed as 90 ± 2%. Further, in assay [8], the “α1β1εδ Activity” value is “N”.
On to `CN1[C@@H]2CC[C@H]1CC(=O)C2` [Tropinone], for which the “Effects on 5HT3 Receptors” value in assay [9] was “Neither agonist nor antagonist activity detected”.
As to `CC(=O)OCC[N+](C)(C)C` [ACh, acetylcholine, reference compound], the “α3β4 Imax” value in assay [1] (peak current, relative to ACh maximum (ACh constrained to 1)) is 1.0. Moreover, the “α7 Imax” value in assay [3] is recorded as 1.0.
For the compound `C[N+]1(C)CCCC(O)C1` (centres unmarked) [N,N-dimethyl-3-piperidinol], in assay [3], the “agonist activity on α7” value is “inactive”.
As to `C1CN2CCC1CC2` [QN, quinuclidine], in assay [1], a half-maximal response (EC50) required 180 ± 10 µM; the “agonist character at α3β4” value is “partial agonist”; the “α3β4 Imax” value worked out at 0.64 ± 0.01; the “α3β4 efficacy, % that of ACh” value is 64%. Also, in assay [1], the “α3β4 response, % of the ACh maximum” value turned out to be 46 ± 2%. For the same compound, the “α4β2 Inhibition” value in assay [2] is 74 ± 5%. Further, in [3], the EC50 stood at 7.2 ± 0.5 µM; the “agonist character at α7” value is “potent and fully efficacious agonist”; the “selectivity classification” value is recorded as “non-α7-selective”; the “α7 Imax” value is reported as 1.03 ± 0.02. Further, the “α7 activation at 300 µM” value in assay [3] is “maximal activation”. Moreover, the “5HT3 Activity” value in [4] is listed as “N”. Besides, the “α4β2 Activity” value in [5] is listed as “≈2%”. The Emax in assay [5] (read-out: α4β2 response, % of the ACh maximal responses) was determined as 3.2 ± 0.7%. The “5HT3 Inhibition” value in [6] was “N.S”. In addition, the “α1β1εδ Inhibition” value in assay [7] is reported as “N.S”. Further, in assay [8], the “activation of muscle-type nAChRs” value is listed as “detectable activation” and the “α1β1εδ Activity” value worked out at 3%.
As to `CC[N+]12CCC(CC1)CC2.[I-]` [EQN, 1-ethyl-1-azoniabicyclo[2.2.2]octane iodide], the “agonist character at α3β4” value in [1] is recorded as “comparable with the current evoked in uninjected oocytes”. In assay [3], the “agonist character at α7” value is listed as “weak partial agonist” and the “mecamylamine-sensitive current, % of the total current” value is given as 58 ± 3%.
Take `CC[N+](C)(C)C` [ETMA, reference compound]: in assay [1], the “agonist character at α3β4” value is on record as “partial agonists” and the “α3β4 Imax” value was determined as 0.78 ± 0.04. In assay [1] (read-out: α3β4 EC50), the EC50 turned out to be 660 ± 90 µM. Moreover, the “α4β2 Inhibition” value in assay [2] is 40 ± 9%. Moreover, in assay [3], the “α7 Imax” value was found to be 1.0 ± 0.1. Besides, the EC50 in assay [3] (read-out: α7 EC50) is 19 ± 2 µM. For the same compound, in assay [4], the “5HT3 Activity” value was “N”. For the same compound, the “α4β2 Activity” value in assay [5] is listed as no more than 2%. The “5HT3 Inhibition” value in assay [6] is recorded as “N.S”. Also, in assay [7], the “α1β1εδ Inhibition” value was “N.S”. Also, the “α1β1εδ Activity” value in assay [8] is given as “N”.
For `CN1[C@@H]2CCC[C@H]1CC2` [Tropane], the “Effects on 5HT3 Receptors” value in assay [9] is reported as “Neither agonist nor antagonist activity detected”.
`C[N+](C)(C)C` [TMA, tetramethyl-ammonium, reference compound]: in assay [1], the “agonist character at α3β4” value was “partial agonists” and the “α3β4 Imax” value came to 0.55 ± 0.03. Further, in assay [1] (read-out: α3β4 EC50), the EC50 was 350 ± 190 µM. Moreover, in assay [2], the “α4β2 Inhibition” value is “N.S”. In addition, in [3], the “selectivity classification” value is recorded as “non-α7-selective” and the “α7 Imax” value is given as 1.1 ± 0.1. For the same compound, the concentration for a half-maximal effect (EC50) in assay [3] (read-out: α7 EC50) came to 30 ± 3 µM. In addition, in assay [4], the “5HT3 Activity” value was “N”. In addition, in assay [5], the “α4β2 Activity” value turned out to be 19 ± 6%. Moreover, the “5HT3 Inhibition” value in assay [6] was “N.S”. In assay [7], the “α1β1εδ Inhibition” value is listed as “N.S”. In assay [8], the “activation of muscle-type nAChRs” value is reported as “detectable activation” and the “α1β1εδ Activity” value is less than 2%.
Regarding `CC[N+](C)(C)CC` [dEdMA, diethyldimethylammonium], in [1], the “α3β4 Imax” value is recorded as 0.06 ± 0.01 and the “α3β4 efficacy, fold difference (versus ETMA)” value was “greater than 10 fold”. Besides, in [2], the “α4β2 Inhibition” value was determined as 52 ± 5%. In addition, in assay [3], the “selectivity classification” value is given as “α7-selective agonists” and the “α7 Imax” value is on record as 0.95 ± 0.06. For the same compound, the concentration giving a half-maximal response (EC50) in [3] (read-out: α7 EC50) came out at 197 ± 37 µM. Further, in assay [4], the “5HT3 Activity” value is “N”. Also, the “α4β2 Activity” value in [5] is recorded as “N”. The “5HT3 Inhibition” value in assay [6] is reported as “N.S”. Moreover, the “α1β1εδ Inhibition” value in [7] is reported as “N.S”. Also, in assay [8], the “α1β1εδ Activity” value was “N”.
Regarding `C[N+]1(C)CCCCC1` [Dimethyl piperidinium], the “Effects on 5HT3 Receptors” value in [9] is listed as “Antagonist activity reported”.
For the compound `O=C1NCC2(CN3CCC2CC3)O1` (single isomer, unassigned; (-)) [AR-R17779, (−)-Spiro[1-azabicyclo[2.2.2]octane-3,5′-oxazolidin-2′-one]], the “Effects on 5HT3 Receptors” value in assay [9] is listed as “None”.
Consider `COc1ccc(/C=C2\CN3CCC2CC3)cc1.Cl` [MeOBQNZ, (Z)-3-(4-methoxybenzylidene)-1-azoniabicyclo[2.2.2]octane chloride], for which the “α3β4 Imax” value in [1] is less than 0.01. For the same compound, the “α4β2 Inhibition” value in [2] was determined as 56 ± 4%. Further, in assay [3], the EC50 was determined as 1.1 ± 0.8 µM and the “α7 Imax” value amounted to 0.09 ± 0.01. Further, the “5HT3 Activity” value in assay [4] is reported as “N”. In addition, the “α4β2 Activity” value in assay [5] is on record as “N”. In addition, the “5HT3 Inhibition” value in [6] came to 80 ± 16%. Further, the “α1β1εδ Inhibition” value in assay [7] came out at 76 ± 6%. In addition, the “α1β1εδ Activity” value in [8] is recorded as no more than 1%.
Regarding `OCCN1CCCC1` [1-(2-hydroxyethyl)pyrrolidine], in assay [3], the “agonist activity on α7” value was “inactive”.
Consider `CN1[C@@H]2CC[C@H]1C[C@@H](OC(=O)c1c[nH]c3ccccc13)C2` [Tropisetron], for which the “Effects on 5HT3 Receptors” value in assay [9] (ref Macor et al., 2001, Papke et al., 2005a) is “Competitive antagonist”.
Turning to `O=C(N[C@H]1CN2CCC1CC2)c1cc2ccoc2cn1` [PHA-543,613, N-[(3R)-1-azabicyclo[2.2.2]oct-3-yl]furo[2,3-c]pyridine-5-carboxamide], the “5HT3 receptors, inhibitory activity at” value in assay [9] (ref Wishka et al., 2006) is “Inhibitory activity at ≈ 600 nM”.
Consider `C(=C1/CN2CCC1CC2)/c1ccccc1.Cl` [BQNZ, (Z)-3-benzylidene-1-azoniabicyclo[2.2.2]octane chloride], for which, in assay [1], the “agonist character at α3β4” value is “significant activation” and the “α3β4 Imax” value was found to be 0.10 ± 0.01. Further, the “α4β2 Inhibition” value in assay [2] was determined as 74 ± 6%. For the same compound, in assay [3], the EC50 came to 7.3 ± 0.7 µM and the “α7 Imax” value was 0.11 ± 0.01. In assay [4], the “5HT3 Activity” value is reported as “N”. Also, the “α4β2 Activity” value in assay [5] was “≈1%”. In addition, the “5HT3 Inhibition” value in assay [6] is 95 ± 4%. The “α1β1εδ Inhibition” value in assay [7] is “N.S”. In addition, in assay [8], the “α1β1εδ Activity” value was “≈7%”.
As to `C(=C1\CN2CCC1CC2)/c1ccccc1.Cl` [BQNE, E-3-benzylidene-1-azoniabicyclo[2.2.2]-octane chloride], the “α3β4 Imax” value in assay [1] is less than 0.01. In assay [2], the “α4β2 Inhibition” value is given as 77 ± 2%. For the same compound, in [3], the “selectivity classification” value was “α7-selective” and the “α7 Imax” value was 0.28 ± 0.01. In assay [4], the “5HT3 Activity” value was “N”. Further, the “α4β2 Activity” value in assay [5] was “N”. In addition, the “5HT3 Inhibition” value in [6] amounted to 94 ± 5%. Further, in [7], the “α1β1εδ Inhibition” value stood at 70 ± 7%. Also, in assay [8], the “α1β1εδ Activity” value is “N”.
In the case of quinuclidinone [QN-O], in [1], the “α3β4 Imax” value is ≥0.07±. The EC50 in [1] (read-out: α3β4 EC50) is greater than 1000 µM. Moreover, in assay [2], the “α4β2 Inhibition” value is listed as “N.S”. In addition, in assay [3], the “selectivity classification” value is recorded as “α7-selective agonists”; the “α7 Imax” value came to 0.73 ± 0.04; the “α7 potency, fold lower than related agonists that lack the oxygen group (e.g., ETMA and QN)” value is given as “at least 10 fold”. In addition, the concentration giving a half-maximal response (EC50) in assay [3] (read-out: α7 EC50) worked out at 78 ± 11 µM. Moreover, the “5HT3 Activity” value in [4] is reported as “N”. For the same compound, in assay [5], the “α4β2 Activity” value was “N”. For the same compound, the “5HT3 Inhibition” value in [6] is listed as “N.S”. Moreover, the “α1β1εδ Inhibition” value in assay [7] was “N.S”. Moreover, in assay [8], the “α1β1εδ Activity” value was “N”.
Take `OCCN1CCCCC1` [1-(2-hydroxyethyl)piperidine]: the “agonist activity on α7” value in [3] (300 µM, data not shown) was “inactive”.
On to `C[N+]12CCC(CC1)CC2.[I-]` [MQN, 1-methyl-1-azoniabicyclo[2.2.2]octane iodide], for which, in [1], the “agonist character at α3β4” value was “essentially all activity was lost” and the “α3β4 Imax” value is 0.025 ± 0.006. Also, in [2], the “α4β2 Inhibition” value was 72 ± 4%. In assay [3], the “agonist character at α7” value is “fully effective” and the “α7 Imax” value is listed as 1.0 ± 0.1. Also, in [4], the “5HT3 Activity” value is “N”. Also, in assay [5], the “α4β2 Activity” value is on record as “N”. The “5HT3 Inhibition” value in assay [6] was “N.S”. In [7], the “α1β1εδ Inhibition” value is given as “N.S”. Moreover, the “α1β1εδ Activity” value in assay [8] is given as “N”.

A word on the EC50: it is the concentration at which the effect is half-maximal.
